How the values were obtained:
PRMT5 [1] = molecular target: T1, PRMT5 (Homo sapiens, UniProt O14744); test: PRMT5 biochemical IC50 assay with SAM as cofactor; conditions: PRMT5, SAM as cofactor; read-out: SAM IC50
T1 construct: purchased Viva (custom protein)

[2] = tested on: HAP1 MTAP-deleted cell line; test: SDMA in-cell western assay, HAP1 MTAP-deleted; type: cell-based; conditions: for IC50: Homo sapiens, HAP1, SDMA in-cell western, HAP1 MTAP-deleted; for MTAP intact/deleted ratio: IC50 ratio HAP1 MTAP-intact / HAP1 MTAP-deleted, SDMA in-cell western
Outline: (§1)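 IC50 values come from SDMA signal quantified by in-cell western in two HAP1 lines, one with native MTAP levels and one lacking MTAP.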

[3] = tested on: HAP1 MTAP-deleted cell line; test: Viability assay, MTAP-deleted cell line; type: cell-based; conditions: Homo sapiens, HAP1, viability assay, MTAP-deleted cell line; read-out: HAP1 MTAP deleted viability
Excerpt: Table 1 additionally indicates IC50 values in a viability assay for the MTAP-deleted cell line (column 10), indicating the effect of treatment with compound on cell survival.

PRMT5 [4] = molecular target: T1, PRMT5; test: PRMT5 biochemical IC50 assay with no cofactor; conditions: PRMT5, no cofactor
Excerpt: Table 1 indicates IC50 values (μM) against PRMT5 for exemplary compounds in the presence of SAM as cofactor, with no cofactor, and with MTA as cofactor, respectively (columns 4-6). […] Ki values can be calculated from the IC50 values as described in the Examples section. As detailed in the Examples section, for the assay performed in the presence of SAM, IC50=Ki×1.5 (Ki=IC50/1.5).

[5] = tested on: HAP1 MTAP-intact cell line; test: SDMA in-cell western assay, HAP1 MTAP-intact; type: cell-based; conditions: Homo sapiens, HAP1, SDMA in-cell western, HAP1 MTAP-intact; read-out: MTAP HAP1 intact IC50
Outline: as §1

PRMT5 [6] = molecular target: T1, PRMT5; test: PRMT5 biochemical IC50 assay with MTA as cofactor; conditions: PRMT5, MTA as cofactor; read-out: MTA IC50
[7] = read-out: HAP 1 MTAP deleted IC50
[8] = read-out: No Cofactor/ rel IC50
[9] = read-out: HAP1 MTAP deleted IC50

T1 sequence (O14744 whole entry): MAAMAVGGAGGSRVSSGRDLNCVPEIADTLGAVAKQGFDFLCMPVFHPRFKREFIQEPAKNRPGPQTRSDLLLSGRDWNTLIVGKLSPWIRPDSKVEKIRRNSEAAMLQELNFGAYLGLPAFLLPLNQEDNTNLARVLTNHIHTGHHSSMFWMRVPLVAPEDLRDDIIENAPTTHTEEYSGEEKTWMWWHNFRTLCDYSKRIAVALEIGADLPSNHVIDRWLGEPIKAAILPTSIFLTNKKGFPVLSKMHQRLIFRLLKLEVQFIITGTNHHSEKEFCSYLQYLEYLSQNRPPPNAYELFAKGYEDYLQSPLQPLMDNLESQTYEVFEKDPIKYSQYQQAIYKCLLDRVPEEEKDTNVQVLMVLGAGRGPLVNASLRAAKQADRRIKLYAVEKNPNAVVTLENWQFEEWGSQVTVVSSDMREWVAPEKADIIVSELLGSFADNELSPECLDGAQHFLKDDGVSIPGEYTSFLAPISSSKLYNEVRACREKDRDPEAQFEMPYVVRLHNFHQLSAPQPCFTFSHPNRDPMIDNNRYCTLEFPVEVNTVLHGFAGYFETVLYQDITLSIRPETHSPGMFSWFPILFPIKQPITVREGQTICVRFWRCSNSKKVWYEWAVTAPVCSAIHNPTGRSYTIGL
T1 sequence (Q9BQA1 whole entry partner): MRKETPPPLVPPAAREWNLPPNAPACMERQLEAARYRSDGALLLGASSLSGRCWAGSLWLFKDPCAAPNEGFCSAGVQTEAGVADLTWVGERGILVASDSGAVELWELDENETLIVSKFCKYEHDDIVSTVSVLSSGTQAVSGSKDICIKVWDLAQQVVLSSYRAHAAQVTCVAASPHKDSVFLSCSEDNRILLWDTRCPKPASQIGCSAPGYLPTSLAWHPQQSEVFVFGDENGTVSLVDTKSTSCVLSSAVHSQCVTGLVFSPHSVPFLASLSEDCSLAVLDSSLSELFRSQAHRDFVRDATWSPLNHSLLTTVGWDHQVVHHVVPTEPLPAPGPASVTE

Structure (SMILES) | IC50 (PRMT5 [1]) [nM] | IC50 [2, 7] [nM] | MTAP intact/deleted ratio [2] | IC50 [3] [nM] | IC50 (PRMT5 [4]; [8]) [nM] | IC50 [5] [nM] | IC50 (PRMT5 [6]) [nM] | IC50 [2, 9] [nM] | IC50 (PRMT5 [4]; read-out: No Cofactor/rel IC50) [nM]
Cc1ccc2cc([C@@H]3CC[C@@H](C)CN3C(=O)C(=O)Nc3cncc(C(N)=O)c3)ccc2n1 (racemic) [Compound 167, rac-5-{2-[(2R,5S)-5-Methyl-2-(2-methylquinolin-6-yl)piperidin-1-yl]-2-oxoacetamido}pyridine-3-carboxamide] | 50 to 500 | 100 to 1000 | A (an IC50 ratio greater than or equal to 10 fold) | 1000 to 10000 | 50 to 500 | > 1000 | < 50 |  | 
Cc1cc(NC(=O)C(=O)N2C[C@H](C)CC[C@@H]2C)cnc1N (racemic) [Compound 168, N-(6-amino-5-methyl-3-pyridyl)-2-[(2S,5R)-2,5-dimethyl-1-piperidyl]-2-oxo-acetamide] | 50 to 500 | > 1000 | C (an IC50 ratio of less than 3 fold) | > 10000 | 50 to 500 | > 1000 | 50 to 500 |  | 
Cc1cc([C@@H]2CC[C@@H](C)CN2C(=O)C(=O)Nc2cncc(C(N)=O)c2)ccc1OC1CCOC1 (mixture of isomers) [Compound 171, rac-5-{2-[(2R,5S)-5-Methyl-2-[3-methyl-4-(oxolan-3-yloxy)phenyl]piperidin-1-yl]-2-oxoacetamido}pyridine-3-carboxamide] | 50 to 500 | < 100 | A (an IC50 ratio greater than or equal to 10 fold) | 1000 to 10000 | 50 to 500 | > 1000 | < 50 |  | 
C[C@@H]1CC[C@@H](C2CCCC2)N(C(=O)C(=O)Nc2cncc(C(N)=O)c2)C1 (racemic) [Compound 172, 5-(2-(2-cyclopentyl-5-methylpiperidin-1-yl)-2-oxoacetamido)nicotinamide] | 50 to 500 | 100 to 1000 | A (an IC50 ratio greater than or equal to 10 fold) | > 10000 | 50 to 500 | > 1000 | < 50 |  | 
Cc1cc([C@@H]2CC[C@@H](C)CN2C(=O)C(=O)Nc2cncc(C(N)=O)c2)ccc1Cl (racemic) [Compound 173, rac-5-{2-[(2R,5S)-2-(4-Chloro-3-methylphenyl)-5-methylpiperidin-1-yl]-2-oxoacetamido}pyridine-3-carboxamide] | 50 to 500 | < 100 | A (an IC50 ratio greater than or equal to 10 fold) | 1000 to 10000 | 50 to 500 | > 1000 | < 50 |  | 
C[C@@H]1CC[C@@H](c2cccc(Cl)c2)N(C(=O)C(=O)Nc2cncc(C(N)=O)c2)C1 (racemic) [Compound 174, rac-5-{2-[(2R,5S)-2-(3-Chlorophenyl)-5-methylpiperidin-1-yl]-2-oxoacetamido}pyridine-3-carboxamide] | 50 to 500 |  | A (an IC50 ratio greater than or equal to 10 fold) | 1000 to 10000 |  | > 1000 | < 50 | < 100 | 50 to 500
Cc1cc(NC(=O)C(=O)N2C[C@H](C)CC[C@@H]2C2CCCCC2)cnc1N (racemic) [Compound 175, N-(6-amino-5-methyl-3-pyridyl)-2-[(2R,5R)-2-cyclohexyl-5-methyl-1-piperidyl]-2-oxo-acetamide] | > 500 |  | B (an IC50 ratio greater than or equal to 3 fold but lower than 10 fold) | > 10000 |  | > 1000 | 50 to 500 | > 1000 | > 500
CC(C)[C@@H]1CC[C@@H](C)CN1C(=O)C(=O)Nc1cncc(C(N)=O)c1 (racemic) [Compound 176, 5-[[2-[(2S,5R)-2-isopropyl-5-methyl-1-piperidyl]-2-oxo-acetyl]amino]pyridine-3-carboxamide] | 50 to 500 |  | A (an IC50 ratio greater than or equal to 10 fold) | > 10000 |  | > 1000 | < 50 | 100 to 1000 | 50 to 500
Cc1cc(NC(=O)C(=O)N2C[C@H](C(F)(F)F)CC[C@H]2c2ccccc2)cnc1N (racemic) [Compound 177, rac-N-(6-amino-5-methylpyridin-3-yl)-2-oxo-2-((2R,5S)-2-phenyl-5-(trifluoromethyl)piperidin-1-yl)acetamide] | 50 to 500 |  | B (an IC50 ratio greater than or equal to 3 fold but lower than 10 fold) | > 10000 |  | > 1000 | 50 to 500 | > 1000 | 50 to 500
Cc1ccc([C@@H]2CC[C@@H](C)CN2C(=O)C(=O)Nc2cncc(C(N)=O)c2)cc1Cl (racemic) [Compound 179, rac-5-{2-[(2R,5S)-2-(3-Chloro-4-methylphenyl)-5-methylpiperidin-1-yl]-2-oxoacetamido}pyridine-3-carboxamide] | 50 to 500 |  | A (an IC50 ratio greater than or equal to 10 fold) | 1000 to 10000 |  | > 1000 | < 50 | < 100 | 50 to 500
Cc1ccc([C@@H]2CC[C@@H](C)CN2C(=O)C(=O)Nc2cncc(C(N)=O)c2)cc1C (racemic) [Compound 180, rac-5-{2-[(2R,5S)-2-(3,4-Dimethylphenyl)-5-methylpiperidin-1-yl]-2-oxoacetamido}pyridine-3-carboxamide] | 50 to 500 |  | A (an IC50 ratio greater than or equal to 10 fold) | 1000 to 10000 |  | > 1000 | < 50 | 100 to 1000 | 50 to 500
C[C@@H]1CC[C@@H](c2ccccc2)N(C(=O)C(=O)Nc2cncc(C(N)=O)c2)[C@H]1C (racemic) [Compound 181, rac-5-[[2-[(2S,3R,6S)-2,3-dimethyl-6-phenyl-1-piperidyl]-2-oxo-acetyl]amino]pyridine-3-carboxamide] | 50 to 500 |  | A (an IC50 ratio greater than or equal to 10 fold) | 1000 to 10000 |  | > 1000 | < 50 | 100 to 1000 | 50 to 500
NC(=O)c1cncc(NC(=O)C(=O)N2CC[C@@H](O)C[C@H]2c2ccccc2)c1 (racemic) [Compound 185, 5-(2-(4-hydroxy-2-phenylpiperidin-1-yl)-2-oxoacetamido)nicotinamide] | 50 to 500 |  | C (an IC50 ratio of less than 3 fold) | > 10000 |  | > 1000 | 50 to 500 | > 1000 | > 500
Cc1cc(NC(=O)C(=O)N2C[C@@H](C)CC[C@@H]2c2cccc(O)c2)cnc1N (racemic) [Compound 187, rac-N-(6-amino-5-methylpyridin-3-yl)-2-((2R,5S)-2-(3-hydroxyphenyl)-5-methylpiperidin-1-yl)-2-oxoacetamide] | 50 to 500 |  | A (an IC50 ratio greater than or equal to 10 fold) | 1000 to 10000 |  | 100 to 1000 | < 50 | < 100 | 50 to 500
Cc1cc(NC(=O)C(=O)N2C[C@H](C)CC[C@H]2C2CCCC2)cnc1N (racemic) [Compound 190, N-(6-amino-5-methyl-3-pyridyl)-2-[(2S,5R)-2-cyclopentyl-5-methyl-1-piperidyl]-2-oxo-acetamide] | 50 to 500 |  | B (an IC50 ratio greater than or equal to 3 fold but lower than 10 fold) | 1000 to 10000 |  | > 1000 | < 50 | 100 to 1000 | 50 to 500
C[C@@H]1CC[C@@H](c2cc(Cl)cc(Cl)c2)N(C(=O)C(=O)Nc2cncc(C(N)=O)c2)C1 (racemic) [Compound 206, rac-5-{2-[(2R,5S)-2-(3,5-Dichlorophenyl)-5-methylpiperidin-1-yl]-2-oxoacetamido}pyridine-3-carboxamide] | 50 to 500 |  | A (an IC50 ratio greater than or equal to 10 fold) | 1000 to 10000 |  | > 1000 | < 50 | 100 to 1000 | 50 to 500
C[C@@H]1CC[C@@H](c2ccc(N3CCCC3)nc2)N(C(=O)C(=O)Nc2cncc(C(N)=O)c2)C1 (racemic) [Compound 207, rac-5-{2-[(2R,5S)-5-methyl-2-[6-(pyrrolidin-1-yl)pyridin-3-yl]piperidin-1-yl]-2-oxoacetamido}pyridine-3-carboxamide] | > 500 |  | A (an IC50 ratio greater than or equal to 10 fold) | 1000 to 10000 |  | > 1000 | 50 to 500 | 100 to 1000 | 50 to 500
